Laboratory results as given in patent publication US10934274B2, “Quinoline derivatives as TAM RTK inhibitors” (Qurient Co., Ltd., priority 2015, dated 2021).

What was measured:
[1] = target: T1, TYRO3 (Homo sapiens, UniProt Q06418); assay: LanthaScreen Eu kinase binding assay, TYRO3; conditions: Tracer 236
T1 construct: purchased Life Technologies
T1 sequence (Q06418 41-890): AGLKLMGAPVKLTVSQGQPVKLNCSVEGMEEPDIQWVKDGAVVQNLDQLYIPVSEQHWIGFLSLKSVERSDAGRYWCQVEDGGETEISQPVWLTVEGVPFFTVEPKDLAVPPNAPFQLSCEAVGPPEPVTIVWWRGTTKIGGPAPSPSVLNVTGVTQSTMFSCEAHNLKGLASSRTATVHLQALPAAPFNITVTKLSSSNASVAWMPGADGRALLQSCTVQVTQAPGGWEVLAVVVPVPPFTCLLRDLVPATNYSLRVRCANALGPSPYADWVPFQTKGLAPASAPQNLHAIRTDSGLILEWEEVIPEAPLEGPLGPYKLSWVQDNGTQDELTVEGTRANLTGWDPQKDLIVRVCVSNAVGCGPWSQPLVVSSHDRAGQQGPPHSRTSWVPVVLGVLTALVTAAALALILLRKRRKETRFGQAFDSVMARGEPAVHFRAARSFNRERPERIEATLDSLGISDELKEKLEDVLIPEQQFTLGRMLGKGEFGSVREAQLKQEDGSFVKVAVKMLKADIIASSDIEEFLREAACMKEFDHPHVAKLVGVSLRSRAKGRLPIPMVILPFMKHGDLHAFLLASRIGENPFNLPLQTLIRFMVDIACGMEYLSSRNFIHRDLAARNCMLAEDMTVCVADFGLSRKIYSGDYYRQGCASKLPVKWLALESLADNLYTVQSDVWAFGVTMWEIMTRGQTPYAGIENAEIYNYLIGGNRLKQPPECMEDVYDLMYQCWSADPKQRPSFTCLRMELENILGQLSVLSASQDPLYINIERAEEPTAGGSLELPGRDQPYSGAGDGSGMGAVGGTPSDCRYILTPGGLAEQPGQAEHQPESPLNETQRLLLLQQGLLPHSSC

[2] = target: T2, Met (Homo sapiens, UniProt P08581); assay: LanthaScreen Eu kinase binding assay, Met; conditions: Tracer 236, read-out: cMet kinase binding activity (Kd)
T2 construct: purchased Life Technologies

[3] = target: T3, Mer (Homo sapiens, UniProt Q12866); assay: LanthaScreen Eu kinase binding assay, Mer; conditions: Tracer 236
T3 construct: purchased Life Technologies
T3 sequence (Q12866 21-999): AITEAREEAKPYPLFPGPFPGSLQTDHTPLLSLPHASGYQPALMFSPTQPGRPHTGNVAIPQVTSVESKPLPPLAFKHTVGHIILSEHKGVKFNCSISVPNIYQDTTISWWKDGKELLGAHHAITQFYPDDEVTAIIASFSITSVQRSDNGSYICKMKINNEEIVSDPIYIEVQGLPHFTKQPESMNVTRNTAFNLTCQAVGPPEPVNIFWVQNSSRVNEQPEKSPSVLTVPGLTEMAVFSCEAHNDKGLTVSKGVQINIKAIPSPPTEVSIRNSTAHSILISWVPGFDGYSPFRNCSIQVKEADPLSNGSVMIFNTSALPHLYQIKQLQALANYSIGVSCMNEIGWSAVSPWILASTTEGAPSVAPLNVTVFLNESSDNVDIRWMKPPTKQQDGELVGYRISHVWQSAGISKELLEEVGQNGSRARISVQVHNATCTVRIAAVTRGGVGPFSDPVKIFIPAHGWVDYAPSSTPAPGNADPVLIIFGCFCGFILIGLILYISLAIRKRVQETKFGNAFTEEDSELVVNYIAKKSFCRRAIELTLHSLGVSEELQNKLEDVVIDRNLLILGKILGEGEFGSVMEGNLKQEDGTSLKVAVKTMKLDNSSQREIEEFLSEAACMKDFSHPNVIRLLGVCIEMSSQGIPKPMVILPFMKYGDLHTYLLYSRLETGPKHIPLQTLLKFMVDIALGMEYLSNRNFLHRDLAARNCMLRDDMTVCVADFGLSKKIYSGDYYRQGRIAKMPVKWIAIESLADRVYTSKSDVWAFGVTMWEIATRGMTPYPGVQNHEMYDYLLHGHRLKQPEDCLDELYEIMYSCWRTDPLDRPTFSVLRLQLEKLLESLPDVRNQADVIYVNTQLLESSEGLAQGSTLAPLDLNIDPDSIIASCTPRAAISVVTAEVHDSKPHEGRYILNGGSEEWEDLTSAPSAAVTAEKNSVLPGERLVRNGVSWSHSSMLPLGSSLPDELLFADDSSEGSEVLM

T2 sequence (P08581 25-1390): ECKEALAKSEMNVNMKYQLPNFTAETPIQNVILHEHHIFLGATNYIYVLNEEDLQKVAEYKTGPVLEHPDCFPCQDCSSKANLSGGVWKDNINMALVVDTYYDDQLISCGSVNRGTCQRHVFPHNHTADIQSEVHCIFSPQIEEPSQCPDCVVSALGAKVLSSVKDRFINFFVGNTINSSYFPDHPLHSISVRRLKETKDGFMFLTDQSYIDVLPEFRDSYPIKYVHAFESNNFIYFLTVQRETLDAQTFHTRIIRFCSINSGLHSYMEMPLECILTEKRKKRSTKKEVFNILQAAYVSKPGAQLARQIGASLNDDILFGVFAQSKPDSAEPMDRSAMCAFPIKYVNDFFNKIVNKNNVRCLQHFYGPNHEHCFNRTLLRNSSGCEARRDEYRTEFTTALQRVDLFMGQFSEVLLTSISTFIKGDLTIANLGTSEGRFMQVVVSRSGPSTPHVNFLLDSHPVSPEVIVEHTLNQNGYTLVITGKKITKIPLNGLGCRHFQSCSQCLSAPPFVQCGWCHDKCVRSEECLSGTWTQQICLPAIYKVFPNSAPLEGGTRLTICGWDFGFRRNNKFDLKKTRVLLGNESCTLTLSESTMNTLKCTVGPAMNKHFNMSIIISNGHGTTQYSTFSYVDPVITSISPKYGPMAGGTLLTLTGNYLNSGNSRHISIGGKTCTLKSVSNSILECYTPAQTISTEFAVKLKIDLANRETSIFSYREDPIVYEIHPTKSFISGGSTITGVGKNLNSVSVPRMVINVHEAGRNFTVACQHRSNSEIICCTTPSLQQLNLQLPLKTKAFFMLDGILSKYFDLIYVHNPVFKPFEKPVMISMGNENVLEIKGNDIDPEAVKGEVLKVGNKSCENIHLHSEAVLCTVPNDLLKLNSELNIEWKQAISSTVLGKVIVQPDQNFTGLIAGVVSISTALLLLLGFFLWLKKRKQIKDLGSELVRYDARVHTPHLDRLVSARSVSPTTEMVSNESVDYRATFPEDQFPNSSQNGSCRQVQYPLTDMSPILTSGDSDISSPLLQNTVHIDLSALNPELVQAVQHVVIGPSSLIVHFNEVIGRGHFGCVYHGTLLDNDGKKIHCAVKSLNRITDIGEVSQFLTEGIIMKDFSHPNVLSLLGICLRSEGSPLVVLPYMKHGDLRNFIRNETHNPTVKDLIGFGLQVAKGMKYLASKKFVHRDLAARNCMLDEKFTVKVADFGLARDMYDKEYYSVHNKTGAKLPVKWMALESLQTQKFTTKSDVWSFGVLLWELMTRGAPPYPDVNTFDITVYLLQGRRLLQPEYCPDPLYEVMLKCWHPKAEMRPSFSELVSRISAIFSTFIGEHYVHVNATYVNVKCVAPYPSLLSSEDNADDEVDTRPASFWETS

Row | Compound | Kd [1] | Kd [2] | Kd [3]
1 | CCOc1cn(C2CCCN(C(N)=O)C2)nc1C(=O)Nc1ccc(Oc2ccnc3cc(OC)c(OC)cc23)cc1F (stereo not drawn) [Compound 225] | 100 to 1000 nM | 100 to 1000 nM | < 100 nM
2 | CCOc1cn(Cc2cnccc2C)nc1C(=O)Nc1ccc(Oc2ccnc3cc(OC)c(OC)cc23)cc1F [Compound 226] | 100 to 1000 nM | < 100 nM | < 100 nM
3 | CCOc1cn(-c2cnccc2C(C)(O)CO)nc1C(=O)Nc1ccc(Oc2ccnc3cc(OC)c(OC)cc23)cc1F (stereo not drawn) [Compound 227] | < 100 nM | < 100 nM | < 100 nM
4 | CCOc1cn(-c2nccnc2C(C)(O)CO)nc1C(=O)Nc1ccc(Oc2ccnc3cc(OC)c(OC)cc23)cc1F (stereo not drawn) [Compound 229] | < 100 nM | < 100 nM | < 100 nM
5 | CCOc1cn(-c2cnc(N)nc2)nc1C(=O)Nc1ccc(Oc2ccnc3cc(OC(C)C)c(OC)cc23)cc1F [Compound 230] | ≥ 1000 nM | ≥ 1000 nM | < 100 nM
6 | CCOc1cn(-c2cnccc2CO)nc1C(=O)Nc1ccc(Oc2ccnc3cc(OC(C)C)c(OC)cc23)cc1F [Compound 231] | < 100 nM | 100 to 1000 nM | < 100 nM
7 | CCC(C)Oc1cc2nccc(Oc3ccc(NC(=O)c4nn(-c5cccnc5)cc4OCC(F)(F)F)nc3)c2cc1OC (stereo not drawn) [Compound 234] | < 100 nM | 100 to 1000 nM | < 100 nM
8 | CCOc1cn(-c2cnc(N)nc2)nc1C(=O)Nc1ccc(Oc2ccnc3cc(OC)c(OC(F)(F)F)cc23)cc1F [Compound 242] | ≥ 1000 nM | ≥ 1000 nM | ≥ 1000 nM
9 | COc1cc2c(Oc3ccc(NC(=O)c4nn(-c5cnc(N)nc5)cc4OCC(F)(F)F)c(F)c3)ccnc2cc1OC(C)C [Compound 243] | < 100 nM | < 100 nM | < 100 nM
10 | COc1cc2c(Oc3ccc(NC(=O)c4nn(-c5cnc(N)cn5)cc4OCC(F)(F)F)c(F)c3)ccnc2cc1OC(C)C [Compound 246] | < 100 nM | ≥ 1000 nM | < 100 nM
11 | COc1cc2nccc(Oc3ccc(NC(=O)c4nn(-c5cnc(N)cn5)cc4OCC(F)(F)F)c(F)c3)c2cc1OC [Compound 252] | < 100 nM | ≥ 1000 nM | < 100 nM
12 | COc1cc2c(Oc3ccc(NC(=O)c4nn(-c5cnc(N)cn5)cc4OCC(F)(F)F)nc3)ccnc2cc1OC(C)C [Compound 253] | < 100 nM | < 100 nM | < 100 nM
13 | COc1cc2nccc(Oc3ccc(NC(=O)c4nn(-c5cnc(N)nc5)cc4OC(F)F)nc3)c2cc1OC [Compound 254] | ≥ 1000 nM | ≥ 1000 nM | < 100 nM
14 | COc1cc2c(Oc3ccc(NC(=O)c4nn(-c5cnc(N)nc5)cc4OCC(F)(F)F)nc3)ccnc2cc1OC(C)C [Compound 257] | < 100 nM | < 100 nM | < 100 nM
15 | COc1cc2nccc(Oc3ccc(NC(=O)c4nn(-c5cnc(N)nc5)cc4OCC(F)(F)F)c(F)c3)c2cc1OC [Compound 259] | < 100 nM | < 100 nM | < 100 nM
16 | COc1cc2nccc(Oc3ccc(NC(=O)c4nn(-c5cnc(N)nc5)cc4OC(C)C)nc3)c2cc1OC [Compound 260] | < 100 nM | < 100 nM | < 100 nM
17 | COc1cc2nccc(Oc3ccc(NC(=O)c4nn(-c5cnc(N)nc5)cc4OCC4CNC4)nc3)c2cc1OC [Compound 265] | ≥ 1000 nM | ≥ 1000 nM | ≥ 1000 nM
18 | COc1cc2nccc(Oc3ccc(NC(=O)c4nn(-c5cnc(N)nc5)cc4OCC4COC4)nc3)c2cc1OC [Compound 269] | < 100 nM | 100 to 1000 nM | < 100 nM

Second part, the compound after the results:

Row | Kd [1] | Kd [2] | Kd [3] | Compound
19 | < 100 nM | ≥ 1000 nM | < 100 nM | CCOc1cn(-c2cnccc2CO)nc1C(=O)Nc1ccc(Oc2ccnc3cc(OC)c(OC(F)(F)F)cc23)cn1 [Compound 233]
20 | < 100 nM | < 100 nM | < 100 nM | COc1cc2nccc(Oc3ccc(NC(=O)c4nn(-c5cnc(Cl)cn5)cc4OCC(F)(F)F)nc3)c2cc1OC [Compound 236]
21 | < 100 nM | < 100 nM | < 100 nM | COc1cc2nccc(Oc3ccc(NC(=O)c4nn(-c5cnc(N)nc5)cc4OCC(F)(F)F)nc3)c2cc1OC [Compound 237]
22 | < 100 nM | 100 to 1000 nM | 100 to 1000 nM | COc1cc2nccc(Oc3ccc(NC(=O)c4nn(-c5cccnc5)cc4OCC4CC4)nc3)c2cc1OC(F)(F)F [Compound 239]
23 | < 100 nM | < 100 nM | < 100 nM | COc1cc2nccc(Oc3ccc(NC(=O)c4nn(-c5cnc(N)nc5)cc4OCC4CC4)nc3)c2cc1OC [Compound 240]
24 | ≥ 1000 nM | ≥ 1000 nM | < 100 nM | CCOc1cn(-c2cnc(N)nc2)nc1C(=O)Nc1ccc(Oc2ccnc3cc(OC)c(OC(F)(F)F)cc23)cn1 [Compound 241]
25 | < 100 nM | < 100 nM | < 100 nM | COc1cc2nccc(Oc3ccc(NC(=O)c4nn(-c5ccc(OC(F)(F)F)cc5Cl)cc4OCC4CC4)nc3)c2cc1OC [Compound 244]
26 | < 100 nM | < 100 nM | < 100 nM | COc1cc2nccc(Oc3ccc(NC(=O)c4nn(-c5cnccc5C(F)(F)F)cc4OCC4CC4)nc3)c2cc1OC [Compound 247]
27 | < 100 nM | < 100 nM | < 100 nM | COc1cc2nccc(Oc3ccc(NC(=O)c4nn(-c5cnc(N)cn5)cc4OCC(F)(F)F)nc3)c2cc1OC [Compound 248]
28 | < 100 nM | < 100 nM | < 100 nM | COc1cc2nccc(Oc3ccc(NC(=O)c4nn(-c5cnc(N)cn5)cc4OCC4CC4)nc3)c2cc1OC [Compound 249]
29 | < 100 nM | < 100 nM | < 100 nM | COc1cc2nccc(Oc3ccc(NC(=O)c4nn(-c5cccnc5)cc4OCC4CC4)nc3)c2cc1OC [Compound 255]
30 | < 100 nM | < 100 nM | < 100 nM | COc1cc2nccc(Oc3ccc(NC(=O)c4nn(-c5ccc(F)cc5C)cc4OCC4CC4)nc3)c2cc1OC [Compound 258]
31 | < 100 nM | < 100 nM | < 100 nM | COc1cc2nccc(Oc3ccc(NC(=O)c4nn(-c5cncnc5C5CC5)cc4OCC(F)(F)F)nc3)c2cc1OC [Compound 261]
32 | < 100 nM | < 100 nM | < 100 nM | COc1cc2nccc(Oc3ccc(NC(=O)c4nn(-c5cnc(N)nc5)cc4OCC4CCC4)nc3)c2cc1OC [Compound 262]
33 | < 100 nM | < 100 nM | < 100 nM | COc1cc2nccc(Oc3ccc(NC(=O)c4nn(-c5ccc(F)cc5Cl)cc4OCC4CC4)nc3)c2cc1OC [Compound 263]
34 | < 100 nM | < 100 nM | < 100 nM | COc1cc2nccc(Oc3ccc(NC(=O)c4nn(-c5ccc(F)cc5OC)cc4OCC4CC4)nc3)c2cc1OC [Compound 264]
35 | < 100 nM | < 100 nM | < 100 nM | COc1cc2nccc(Oc3ccc(NC(=O)c4nn(-c5ccc(F)cc5N5CCOCC5)cc4OCC4CC4)nc3)c2cc1OC [Compound 266]
36 | < 100 nM | < 100 nM | < 100 nM | COc1cc2nccc(Oc3ccc(NC(=O)c4nn(-c5ccc(F)cc5F)cc4OCC4CC4)nc3)c2cc1OC [Compound 267]
37 | < 100 nM | < 100 nM | < 100 nM | COc1cc2nccc(Oc3ccc(NC(=O)c4nn(-c5ccc(F)cc5F)cc4OCC(F)(F)F)nc3)c2cc1OC [Compound 268]
